Data set [1] in a line: Pharmacokinetics after a single oral dose in test persons (Table 1).
Text: (§1) Pharmacokinetic parameters after taking a (single) oral
(§2) ibuprofen active substance) (4 test persons)
A short description of another data set: clinical. The following applies: human, in vivo, po.
[2] abbreviates: single oral dose, tablet, 150 mg ibuprofen active substance, 4 test persons, Mean ± SD.

Text for clinical: as §1, §2

Turning to `CC(C)Cc1ccc([C@H](C)C(=O)O)cc1` [S(+)-ibuprofen free acid, S(+)-ibuprofen, reference compound], in data set [1] (setting [2]), the tlag is listed as 0.50 ± 0.1 h. Further, in “clinical”, the tmax came out at 2.1 ± 0.2 h.
In general, AUC refers to concentration integrated over time. Low values mean less exposure, high ones more exposure. In general, Cmax refers to the peak of the concentration-time curve. In the case of `CC(C)Cc1ccc([C@H](C)C(=O)O)cc1.CNC[C@H](O)[C@@H](O)[C@H](O)[C@H](O)CO` [Sugar complex, S(+)-ibuprofen-N-methyl-2-deoxy-glucitol], the “tmax (rapid onset effect)” value in data set [1] (150 mg active substance) lay in the range of 0.25 to 0.333 h. In data set [1] (setting [2]), this compound came in with an AUC of 55000 ± 10200 ng·h/mL, a Cmax of 24500 ± 6700 ng/mL, a tlag of 0.1 ± 0.02 h and a tmax of 0.25 ± 0.11 h.

For the origin of these results see patent US5604206A, “Complexes containing S(+) phenyl alkane acids and amino sugars” (priority 1990, dated 1997).
